Data set [1] is described as follows: UPLC-MS/MS quantification of EXE and its metabolites in plasma of subjects taking EXE. It counts as in vivo, human. As to conditions: for Plasma Percentage of TEM (Mean ± S.E.): TEM = EXE + 17β-DHE + 17β-DHE-Gluc + 6-EXE-cys + 6-DHE-cys, calculated per subject, then mean of 132; for Plasma concentration, Mean ± S.E. / Plasma concentration, Range: n = 132 subjects; for Plasma concentration, Mean ± S.E.: 25 mg EXE daily orally for at least 28 days, sampled 4-6 hours after pill; for Plasma concentration, Range: 25 mg EXE daily orally, 4-6 hours after pill. Here is the method:
(§1) One hundred and thirty-two postmenopausal breast cancer patients (one Hispanic, two African Americans, two Asians, and 127 Caucasians; age range: 35–89 years) with ER+ breast tumors were recruited into this study from the Breast Oncology Clinic at the Penn State Hershey Cancer Institute. Approval was obtained from the Institutional Review Board at Penn State University with informed consent obtained from all subjects. Subjects took a single pill (25 mg) of EXE daily (orally) for at least 28 consecutive days and provided blood (10 ml) and urine (up to 50 ml) specimens between 4 and 6 hours after pill ingestion as described previously ([Luo et al., 2018]). Blood was separated by centrifugation at 1300g for 15 minutes at room temperature. Aliquoted plasma and buffy coat fractions of blood samples and aliquoted urine samples were stored at −80°C until analysis. As a control for EXE metabolism, specimens obtained from women not taking EXE who were recruited into other studies at Penn State University College of Medicine (Hershey, PA; n = 10) were also examined to exclude false positives ([Ashmore et al., 2013]).
To quantify in vivo levels of EXE and its metabolites, the sample preparation method was modified from that described earlier for metabolite identification. For EXE metabolite analysis in plasma, a 2.5-µl aliquot of each plasma sample was first spiked with 2.5 µl of a mixture of deuterium-labeled internal standards in methanol [D3-EXE (0.17 μM), D3-17β-DHE (1.7 μM), 17β-OH-EXE-d3-17-O-β-D-glucuronide (0.52 μM), D3-6-EXE-cys (0.06 μM), and D3-6-17β-DHE-cys (0.25 μM)]. Twenty microliters of pure methanol was then added to extract EXE and its metabolites and to precipitate proteins. After vortexing and subsequent centrifugation at 16,100g for 10 minutes at 4°C, 15 µl of the supernatant was transferred to a sample vial and mixed with 15 µl of water prior to analysis by UPLC-MS.
(§2) For the simultaneous quantification of EXE, 17β-DHE, 17β-DHE-Gluc, 6-EXE-cys, and 6-17β-DHE-cys, urine and plasma samples were prepared as described earlier. Using the same UPLC-MS system described earlier, UPLC was performed with solvent A (5 mM ammonium formate and 0.01% formic acid in water) and solvent B (100% acetonitrile) using the following conditions for both urine and plasma specimens: 0–1.5 minutes at 25% solvent B, a linear gradient to 52% solvent B for 1.5–2.5 minutes, 2.5–4.5 minutes at 52% solvent B, a linear gradient to 95% solvent B from 4.5 to 5 minutes, 5–9.5 minutes at 95% solvent B, followed by a linear gradient to initial conditions of 25% solvent B from 9.5 to 10 minutes. This was followed by a 1-minute run at 25% solvent B to equilibrate the column to initial conditions before the next sample injection. The flow rate was 0.4 ml/min from 0 to 5 minutes, 0.8 ml/min from 5 to 9.5 minutes, and back to 0.4 ml/min from 9.5 to 10 minutes. The injection volume of each prepared urine and plasma sample was 5 µl. The column temperature was 35°C. The Waters XEVO G2-S QTOF MS was operated in tandem mass spectrometry (MS/MS) mode, with the electrospray ionization probe operated in the positive-ion mode and a capillary voltage at 0.6 kV. The cone and desolvation gas flow rates were maintained at 50 and 800 l/h, respectively, and the collision gas flow rate was 0.1 l/h. The source and desolvation gas temperatures were 120°C and 500°C, respectively, and the dwell time for each ion was 300 ms.
(§3) The limits of quantification for EXE, 17β-DHE, 17β-DHE-Gluc, 6-EXE-cys, and 6-17β-DHE-cys were 2.1, 1.6, 1.2, 0.7, and 7.2 nM in plasma, respectively, and 2.1, 1.6, 6.3, 1.5, and 7.2 nM in urine, respectively. Standard curves were constructed by plotting the ratio of analyte peak area to peak area of the corresponding internal standard (described earlier) versus concentration of analyte standard. The concentrations of stock standards were 1000 ppm. […]

A short description of data set [2]: UPLC-MS/MS quantification of EXE and its metabolites in urine of subjects taking EXE. It counts as in vivo, human. As to conditions: for Urine Percentage of TEM (Mean ± S.E.): TEM = EXE + 17β-DHE + 17β-DHE-Gluc + 6-EXE-cys + 6-DHE-cys, calculated per subject, then mean of 132; for Urine concentration, Mean ± S.E. / Urine concentration, Range: n = 132 subjects; for Urine concentration, Mean ± S.E.: 25 mg EXE daily orally for at least 28 days, sampled 4-6 hours after pill; for Urine concentration, Range: 25 mg EXE daily orally, 4-6 hours after pill. The method, then:
as §1
For EXE metabolite analysis in urine, a 2.5-µl aliquot of each urine sample was first spiked with 2.5 µl of the same deuterium-labeled internal standard mixture described earlier. Ten microliters of 75% methanol was then added to extract EXE and its metabolites. After vortexing and subsequent centrifugation at 16,100g for 10 minutes at 4°C, 10 µl of the supernatant was transferred to a sample vial and mixed with 5 µl of water prior to analysis by UPLC-MS.
as §2
as §3, with “ppm. A serial dilution of standards at concentrations ranging from 1.6 nM to 1.7 μM, 1.6 nM to 1.7 μM, 1.0 nM to 2.1 μM, 0.7 nM to 12 μM, and 4.6 nM to 2.4 μM was used to establish standard curves for EXE, 17β-DHE, 17β-DHE-Gluc, 6-EXE-cys, and 6-17β-DHE-cys, respectively.” for “ppm.”

The conditions of data set [3]: in vivo; cited from earlier work.
The conditions of data set [4]: ref Luo et al., 2018, cited from earlier work.

SMILES strings stand for the structures. Values joined by “and” are separate entries in the source; they are usually repeats but may differ in a detail not shown here. Identical values can stand only once.

Take `C[C@]12C=CC(=O)C=C1C(CSC[C@H](N)C(=O)O)C[C@@H]1[C@@H]2CC[C@]2(C)C(=O)CC[C@@H]12` (single isomer, unassigned) [6-EXE-cys, 6-methylcysteinylandrosta-1,4-diene-3,17-dione]: the “Share of the total mean cysteine conjugate levels in plasma” value in data set [1] (female, human, in vivo) stood at 79%. Besides, in data set [2] (female, human, in vivo), the “Share of the total mean cysteine conjugate levels in urine” value is listed as 77% and the “Urine concentration range as printed in the discussion” value fell in the range of 3.3 to 50000 pM.
Take `C[C@]12CC[C@H]3[C@@H](CC(CSC[C@H](N)C(=O)O)C4=CC(=O)C=C[C@@]43C)[C@@H]1CC[C@@H]2O` (stereo partly drawn) [6-17β-DHE-cys, 6-methylcysteinylandrosta-1,4-diene-17β-hydroxy-3-one]: in data set [2] (female, human, in vivo), the “Urine concentration range as printed in the discussion” value lay within 3.3 to 10000 pM.
`CSc1ncnc2c1ncn2[C@@H]1O[C@H](CO)[C@@H](O)[C@H]1O` [6-methylmercaptopurine riboside]: the “Fold lower levels in GSTM1-null genotype than in carriers of one or two copies of GSTM1” value in data set [3] was 2 fold.
Take `C=C1CC2C(CCC3(C)C(O)CCC23)C2(C)C=CC(=O)C=C12` (stereo not drawn) [17β-DHE, 17β-dihydro-EXE]: in data set [4] (same women taking EXE), the “Increase in plasma level with increasing numbers of the UGT2B17 deletion allele” value is listed as 1.3 fold. Further, in data set [1] (plasma), the “Fold lower average percentage of TEM than 17β-DHE-Gluc” value was determined as 3 fold; the “Plasma Percentage of TEM (Mean ± S.E.)” value is 12% and 12 ± 1.2%; the “Plasma concentration, Mean ± S.E.” value was 2.5 nM and 2.5 ± 0.19 nM; the “Plasma concentration, Range” value is 0.11 to 14 nM. Moreover, in data set [2] (urine), the “Urine Percentage of TEM (Mean ± S.E.)” value is 0.14% and 0.14 ± 0.025%; the “Urine concentration, Mean ± S.E.” value is 0.0066 nmol/mg creatinine and 0.0066 ± 0.0012 nmol/mg creatinine; the “Urine concentration, Range” value was 0–0.099 nmol/mg creatinine.
Consider `C=C1C[C@H]2[C@@H]3CC[C@H](O[C@@H]4O[C@H](C(=O)O)[C@@H](O)[C@H](O)[C@H]4O)[C@@]3(C)CC[C@@H]2[C@@]2(C)C=CC(=O)C=C12` [17β-DHE-Gluc, 17β-hydroxy-EXE-17-O-β-D-glucuronide], for which, in data set [4] (women taking EXE), the “Decrease in plasma level with increasing numbers of the UGT2B17 deletion allele” value is reported as “up to 29 fold”. In data set [1] (plasma), the “Plasma Percentage of TEM (Mean ± S.E.)” value is 36% and 36 ± 1.8%; the “Plasma concentration, Mean ± S.E.” value was 30 nM and 30 ± 4.6 nM; the “Plasma concentration, Range” value was in the range of 0.32 to 358 nM. Further, the “Ratio of mean combined cysteine conjugates (6-EXE-cys plus 6-17β-DHE-cys) to 17β-DHE-Gluc in urine” value in data set [2] (urine, 17β-DHE-Gluc is the lower) was determined as 5.5 fold. Besides, in data set [2] (urine), the “Urine Percentage of TEM (Mean ± S.E.)” value is 21% and 21 ± 1.6%; the “Urine concentration, Mean ± S.E.” value was 1.4 nmol/mg creatinine and 1.4 ± 0.37 nmol/mg creatinine; the “Urine concentration, Range” value is reported as 0.0068–45 nmol/mg creatinine.
As for `C=C1C[C@@H]2[C@H](CC[C@]3(C)C(=O)CC[C@@H]23)[C@@]2(C)C=CC(=O)C=C12` [EXE, Exemestane], in data set [1] (plasma), the “Plasma Percentage of TEM (Mean ± S.E.)” value is 17% and 17 ± 0.91%; the “Plasma concentration, Mean ± S.E.” value is 14 nM and 14 ± 1.7 nM; the “Plasma concentration, Range” value is 0 to 105 nM. Besides, in data set [2] (urine), the “Urine Percentage of TEM (Mean ± S.E.)” value was 1.7% and 1.7 ± 0.20%; the “Urine concentration, Mean ± S.E.” value came to 0.21 ± 0.045 nmol/mg creatinine; the “Urine concentration, Range” value is given as 0–3.2 nmol/mg creatinine.

(Values after article PMC7333658, “Identification and Quantification of Novel Major Metabolites of the Steroidal Aromatase Inhibitor, Exemestane” (Drug Metabolism and Disposition, 2018).)
